Experimental data as given in US10654824B2, “2-azabicyclo[3.1.0]hexan-3-one derivatives and methods of use” (Genentech, Inc., priority 2016, dated 2020).
“Also recorded” adds a separate entry of the source.

How the values were obtained:
[1] = molecular target: T1, NIK (Homo sapiens, UniProt Q99558); test: NIK enzyme inhibition assay (Transcreener ADP, fluorescence polarization); type: biochemical; details: for NIK enzyme inhibition, rank among the 4 stereoisomers: in words, four separated stereoisomers of Example 1
T1 construct: made in house; host or cells: baculovirus-infected insect cells
Experimental: The ability of the nuclear factor-kappa B (NF-kB)-inducing kinase (NIK) to catalyze the hydrolysis of adenosine-5′-triphosphate (ATP) was monitored using the Transcreener ADP (adenosine-5′-diphosphate) assay (BellBrook Labs). Purified NIK (0.5 nM) derived from a baculovirus-infected insect cell expression system was incubated with test compounds for 1-3.5 hours in 50 mM 2-[4-(2-hydroxyethyDpiperazin-1-yl]ethanesulfonic acid buffer (pH 7.2) containing 10 mM MgCl2, 2 mM dithiothreitol, 10 μM ATP, 0.01% Triton X-100, 0.1% gamma-globulins from bovine blood, 1% dimethylsulfoxide (DMSO), 7 μg/mL ADP antibody and 5 nM ADP-MR121 633 tracer. Reactions were quenched by the addition of 20 mM 2,2′,2″, 2″′-(ethane-1,2-diyldinitrilo)tetraacetic acid and 0.01% Brij 35. The tracer bound to the antibody was displaced by the ADP generated during the NIK reaction, which causes a decrease in fluorescence polarization that was measured by laser excitation at 633 nm with a Fluorescence Correlation Spectroscopy Plus reader (Evotec AG). Equilibrium dissociation constant (Ki) values for NIK inhibitors are calculated from plots of activity vs. inhibitor concentration using Morrison's quadratic equation that accounts for the potential of tight binding, and by also applying the conversion factor that accounted for competitive inhibition and the concentration of substrate used in the assay relative to its Michaelis constant (Km).

[2] = Hepatocyte stability; type: in vitro ADME, human
Experimental: General. Metabolic stability assays in hepatocytes are conducted using cryopreserved pooled female CD-1 mouse, male Sprague-Dawley rat, male beagle dog, male cynomolgus monkey, and mixed male and female human hepatocytes (CellzDirect). Vials of hepatocytes are thawed rapidly in a water bath set at 37° C. and then are diluted with Dulbecco's modified Eagle's medium (DMEM), pH 7.4. Cells are isolated by centrifugation, pooled, and resuspended in DMEM at 1.0 million viable cells/ml. Membrane integrity of the cells is assessed by trypan blue exclusion. The test compound is dissolved in dimethyl sulfoxide at a final concentration of […]. This test compound stock is diluted further to 2 μM in DMEM (125 μl) before the addition of an equal volume of the 10^6 cells/ml cell suspension. The test compound (final incubation concentration of 1.0 μM with 0.1% dimethyl sulfoxide) and cells (final concentration of 0.5×10^6 cells/ml) are incubated at 37° C. in a 95% air/5% CO2 atmosphere for 3 h. Aliquots (50 μl) are removed at 0, 1, 2, and 3 hours and added to termination mixtures (100 μl) containing acetonitrile and an internal standard. […] The supernatant (90 μl) is removed, combined with 180 μof water, and analyzed by LC-MS/MS.
Metabolic stability of the test compounds were evaluated also in human hepatocytes, following protocols described in Hallifax, et al. Drug Metabol. […]

[3] = test system: p52 nuclear translocation, non-classical NF-kB signaling, HUVEC; test: p52 HUVEC nuclear translocation assay; type: cell-based; details: Homo sapiens, anti-lymphotoxin beta receptor antibody 300 ng/mL
Experimental: (§1) (2) A second set of cell assays used primary human umbilical vein cells (HUVEC) sourced from Lonza to define the selectivity of NIK inhibitors toward inhibition of classical vs. non-classical NF-kB signaling using high content cellular imaging. For the p52 (non-classical NF-kB signaling) nuclear translocation assay, HUVEC were treated with different concentrations of compounds (0.2% DMSO final) in EBM-2 medium (LONZA) containing 2% fetal bovine serum and then stimulated with 300 ng/mL of an anti-lymphotoxin beta receptor antibody (R&D Systems) for 4.5 hours. In the REL-A nuclear translocation assay, HUVEC were incubated with compounds (0.2% DMSO final) for 4 hours 50 minutes in EBM-2 medium containing 2% fetal bovine serum before stimulating them with 2 ng/mL tumor necrosis factor (TNF)-α (R&D Systems) for 10 minutes. Cells were fixed with 4% paraformaldehyde, permeabilized by adding 0.1% Triton X-100 in phosphate buffered saline, and then were incubated with either 2 μg/mL anti-p52 antibody (Millipore) or 400 ng/mL anti-REL-A (p65) antibody (Santa Cruz Biotechnology). […] Imaging was carried out using an Opera reader (Perkin Elmer) and data were analyzed with the aid of Acapella software (Perkin Elmer). The p52 or REL-A translocation into the nucleus was quantified by the ratio of the nuclear to cytoplasmic signal intensity.

[4] = test system: REL-A (p65) nuclear translocation, classical NF-kB signaling, HUVEC; test: REL-A HUVEC nuclear translocation assay; type: cell-based; details: Homo sapiens, TNF-α 2 ng/mL stimulation
Experimental: as §1

[5] = Liver microsome stability; type: in vitro ADME, human
Experimental: General. Metabolic stability assays in liver microsomes are conducted with pooled female CD-1 mouse, male Sprague-Dawley rat, male beagle dog, male cynomolgus monkey, and mixed male and female human liver microsomal incubations. The general assay conditions are as follows. Incubation mixtures consisted of liver microsomes (0.5 mg of microsomal protein/ml) and the test compound (1.0 μM) with or without NADPH (1.0 mM) in the potassium phosphate buffer (100 mM; pH 7.4) with a final incubation volume of 0.25 ml. Reactions are initiated by the addition of NADPH or buffer and shaken in a water bath open to the air at 37° C. At times 0, 20, 40, and 60 min, aliquots (50 μl) are removed and added to termination mixtures (100 μl) containing acetonitrile and an internal standard. The samples are then centrifuged for 10 min at 2000 g. The supernatant (90 μl) is removed, combined with 180 μl of water, and analyzed by LC-MS/MS.
Metabolic stability of the test compounds were evaluated in human liver microsomes following known protocols described in Halladay, et al. Drug Metabol. Lett. 2007, 1:67-72.

T1 sequence (Q99558 whole entry): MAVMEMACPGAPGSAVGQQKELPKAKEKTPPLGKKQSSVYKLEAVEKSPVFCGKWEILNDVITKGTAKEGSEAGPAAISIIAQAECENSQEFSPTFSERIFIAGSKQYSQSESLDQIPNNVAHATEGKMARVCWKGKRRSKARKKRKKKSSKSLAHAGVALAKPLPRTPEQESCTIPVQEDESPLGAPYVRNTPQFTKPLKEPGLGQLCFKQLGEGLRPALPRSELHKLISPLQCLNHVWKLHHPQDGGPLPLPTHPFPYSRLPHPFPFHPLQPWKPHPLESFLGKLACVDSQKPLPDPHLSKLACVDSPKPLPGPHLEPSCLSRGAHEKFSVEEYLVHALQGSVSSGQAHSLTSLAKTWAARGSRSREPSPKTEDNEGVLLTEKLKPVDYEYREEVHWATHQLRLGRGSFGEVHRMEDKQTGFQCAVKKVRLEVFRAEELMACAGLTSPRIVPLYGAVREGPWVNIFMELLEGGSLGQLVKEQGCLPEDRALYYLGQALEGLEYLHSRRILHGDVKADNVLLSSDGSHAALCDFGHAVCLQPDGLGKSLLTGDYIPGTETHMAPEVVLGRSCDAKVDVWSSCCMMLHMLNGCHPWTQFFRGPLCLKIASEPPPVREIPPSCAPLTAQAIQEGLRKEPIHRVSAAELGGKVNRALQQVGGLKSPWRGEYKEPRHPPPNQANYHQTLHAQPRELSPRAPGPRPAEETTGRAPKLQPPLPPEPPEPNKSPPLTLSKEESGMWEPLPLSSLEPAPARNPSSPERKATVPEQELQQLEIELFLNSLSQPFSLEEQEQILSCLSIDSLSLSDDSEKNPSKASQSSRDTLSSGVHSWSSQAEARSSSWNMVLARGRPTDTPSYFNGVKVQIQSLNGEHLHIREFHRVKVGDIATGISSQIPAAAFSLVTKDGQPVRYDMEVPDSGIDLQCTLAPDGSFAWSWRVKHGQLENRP

## CN1C(=O)[C@@](O)(C#Cc2cccc(-c3cccc(C(N)=O)n3)c2)[C@H]2C[C@H]21 (single isomer, unassigned)
[1]
  NIK enzyme inhibition, rank among the 4 stereoisomers: third most potent NIK enzyme inhibitor among the 4 stereoisomers

## CN1C(=O)[C@](O)(C#Cc2cccc(-c3cccc(C(N)=O)n3)c2)[C@@H]2C[C@@H]21 (single isomer, unassigned)
[1]
  NIK enzyme inhibition, rank among the 4 stereoisomers: second most potent NIK enzyme inhibitor among the 4 stereoisomers

## CN1C(=O)[C@@](O)(C#Cc2cccc(-c3cccc(C(N)=O)n3)c2)[C@@H]2C[C@@H]21 (single isomer, unassigned)
[1]
  NIK enzyme inhibition, rank among the 4 stereoisomers: no measurable inhibition

## CN1C(=O)[C@](O)(C#Cc2cccc(-c3cccc(C(N)=O)n3)c2)[C@H]2C[C@H]21 (single isomer, unassigned) [Compound 1]
[2]; human hepatocytes
  Hep CL (human hepatocyte clearance): 4.1 mL/min/kg
[2]; in words, versus comparators C-1, C-3, C-5
  stability in the human hepatocyte assay compared with the corresponding comparator compound: better stability
[3]
  IC50: 93 nM
[4]
  IC50: > 5000 nM
[1]
  NIK enzyme inhibition, rank among the 4 stereoisomers: most potent NIK enzyme inhibitor among the 4 stereoisomers
[1]; purified NIK 0.5 nM, 10 μM ATP, read-out: NIK ADP-FP Ki
  Ki: 0.4 nM
[5]; human liver microsomes
  HLM CL (human liver microsome clearance): 1.2 mL/min/kg
[5]; in words, versus comparators C-1, C-3, C-4, C-5, C-6
  stability in human liver microsomes compared with the respective pyrrolidinone comparator compound: lower clearance; also recorded: better stability
